{
  "source": "patent US20260184675A1",
  "about": "“CHIRAL ISOMERIC SULFITE COMPOUND AND APPLICATION THEREOF” (Chengdu Hanova BioSciences Co., Ltd, priority 2024, published 2026)",
  "key": {"[1]": {"test_system": "eggs of Spodoptera litura", "assay": "Effect on hatching of eggs of Spodoptera litura, egg piece soaking", "format": "in vivo", "details": "500 ppm; for Hatching rate (%), Replicate 1 / Hatching rate (%), Replicate 2 / Hatching rate (%), Replicate 3 / Number of unhatched larvae 4 days after insecticide delivery, Replicate 1 / Number of unhatched larvae 4 days after insecticide delivery, Replicate 2 / Number of unhatched larvae 4 days after insecticide delivery, Replicate 3: Spodoptera litura eggs; for Hatching rate (%), Replicate 1 / Hatching rate (%), Replicate 2 / Hatching rate (%), Replicate 3: 4 days after delivery; for Number of unhatched larvae 4 days after insecticide delivery, Replicate 1 / Number of unhatched larvae 4 days after insecticide delivery, Replicate 2 / Number of unhatched larvae 4 days after insecticide delivery, Replicate 3: soaked 10 minutes", "in_short": "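Egg pieces of about 60 eggs were soaked 10 min in test agent at 500 ppm, blotted, then held singly at 24±1 °C, 80±10% RH, 12:12 L:D. Hatched and unhatched eggs were counted on day 4 to give hatching rate and control effect; 3 replicates.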"}, "Magnaporthe grisea": {"test_system": "Magnaporthe grisea", "format": "cell-based", "details": "100 ppm; for Average antifungal rate (%) / Antifungal rate of Magnaporthe grisea (%), Replicate 1 / Antifungal rate of Magnaporthe grisea (%), Replicate 2 / Antifungal rate of Magnaporthe grisea (%), Replicate 3: 96-well plate; for Average antifungal rate (%): average of 3 replicates"}, "eggs of Aleyrodidae": {"test_system": "eggs of Aleyrodidae", "assay": "Effect on hatching of eggs of Aleyrodidae, leaf disc method", "format": "in vivo", "details": "10 ppm; for Hatching rate (%), Replicate 1 / Hatching rate (%), Replicate 2 / Hatching rate (%), Replicate 3 / Number of hatched larvae 5 days after insecticide delivery, Replicate 1 / Number of hatched larvae 5 days after insecticide delivery, Replicate 2 / Number of hatched larvae 5 days after insecticide delivery, Replicate 3: Aleyrodidae eggs; for Hatching rate (%), Replicate 1 / Hatching rate (%), Replicate 2 / Hatching rate (%), Replicate 3: 5 days after delivery; for Number of hatched larvae 5 days after insecticide delivery, Replicate 1 / Number of hatched larvae 5 days after insecticide delivery, Replicate 2 / Number of hatched larvae 5 days after insecticide delivery, Replicate 3: leaf disc", "in_short": "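Inhibition of Aleyrodidae egg hatching was tested with a leaf disc method at 10 ppm. Egg numbers on each disc were counted under a microscope before treatment. Discs bearing eggs were soaked for 10 seconds in clear water or test solution, removed, and kept under moist conditions. Hatching was checked five days after insecticide delivery and hatched larvae were counted.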"}, "eggs of Panonychus citri": {"test_system": "eggs of Panonychus citri", "assay": "Effect on hatching of eggs of Panonychus citri, leaf disc method", "format": "in vivo", "details": "1 ppm; for Hatching rate (%), Replicate 1 / Hatching rate (%), Replicate 2 / Hatching rate (%), Replicate 3 / Number of hatched larvae 5 days after insecticide delivery, Replicate 1 / Number of hatched larvae 5 days after insecticide delivery, Replicate 2 / Number of hatched larvae 5 days after insecticide delivery, Replicate 3: Panonychus citri eggs; for Hatching rate (%), Replicate 1 / Hatching rate (%), Replicate 2 / Hatching rate (%), Replicate 3: 5 days after delivery; for Number of hatched larvae 5 days after insecticide delivery, Replicate 1 / Number of hatched larvae 5 days after insecticide delivery, Replicate 2 / Number of hatched larvae 5 days after insecticide delivery, Replicate 3: leaf disc"}, "[2]": {"test_system": "eggs of Harmonia axyridis", "assay": "Effect on hatching of eggs of Harmonia axyridis, egg card immersion", "format": "in vivo", "details": "100 ppm; for Number of hatched larvae 4 days after insecticide delivery, Replicate 1 / Number of hatched larvae 4 days after insecticide delivery, Replicate 2 / Number of hatched larvae 4 days after insecticide delivery, Replicate 3: Harmonia axyridis egg cards, immersed 30 seconds; for Hatching rate (%), Replicate 1 / Hatching rate (%), Replicate 2 / Hatching rate (%), Replicate 3: Harmonia axyridis eggs, 4 days after delivery", "in_short": "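Egg cards (~20 eggs each) dipped 30 s in 100 ppm insecticide, air dried and kept moist at 27° C; 5 cards per treatment, 3 replicates. Hatching assessed 4 days after treatment against pre-treatment egg counts, and control effect calculated by formula.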"}},
  "data": [
    {"smiles": "CC(COc1ccc(Cl)cc1Cl)OS(=O)OCCF", "note": "[1′-(S,R)]", "values": [
      {"measurement": "inhibitory activity on the hatching of eggs of Spodoptera litura (in words)", "setting": "[1]", "value": "good inhibitory activities"},
      {"measurement": "Hatching rate (%), Replicate 1", "setting": "[1]; listed as 1′-(S, R)", "value": 27.87, "unit": "%"},
      {"measurement": "Hatching rate (%), Replicate 2", "setting": "[1]; listed as 1′-(S, R)", "value": 26.98, "unit": "%"},
      {"measurement": "Hatching rate (%), Replicate 3", "setting": "[1]; listed as 1′-(S, R)", "value": 21.05, "unit": "%"},
      {"measurement": "Number of unhatched larvae 4 days after insecticide delivery, Replicate 1", "setting": "[1]; listed as 1′-(S, R)", "value": 44},
      {"measurement": "Number of unhatched larvae 4 days after insecticide delivery, Replicate 2", "setting": "[1]; listed as 1′-(S, R)", "value": 46},
      {"measurement": "Number of unhatched larvae 4 days after insecticide delivery, Replicate 3", "setting": "[1]; listed as 1′-(S, R)", "value": 45},
      {"measurement": "inhibitory rate against Magnaporthe grisea (in words)", "setting": "Magnaporthe grisea", "value": "strong inhibitory rate"},
      {"measurement": "Average antifungal rate (%)", "setting": "Magnaporthe grisea", "value": 99.22, "unit": "%"},
      {"measurement": "Antifungal rate of Magnaporthe grisea (%), Replicate 1", "setting": "Magnaporthe grisea", "value": 95.80, "unit": "%"},
      {"measurement": "Antifungal rate of Magnaporthe grisea (%), Replicate 2", "setting": "Magnaporthe grisea", "value": 102.01, "unit": "%"},
      {"measurement": "Antifungal rate of Magnaporthe grisea (%), Replicate 3", "setting": "Magnaporthe grisea", "value": 99.85, "unit": "%"},
      {"measurement": "inhibitory activity on the hatching of eggs of Aleyrodidae (in words)", "setting": "eggs of Aleyrodidae", "value": "strong inhibitory activities"},
      {"measurement": "Hatching rate (%), Replicate 1", "setting": "eggs of Aleyrodidae; listed as 1′-(S, R)", "value": 0.00, "unit": "%"},
      {"measurement": "Hatching rate (%), Replicate 2", "setting": "eggs of Aleyrodidae; listed as 1′-(S, R)", "value": 0.00, "unit": "%"},
      {"measurement": "Hatching rate (%), Replicate 3", "setting": "eggs of Aleyrodidae; listed as 1′-(S, R)", "value": 0.00, "unit": "%"},
      {"measurement": "Number of hatched larvae 5 days after insecticide delivery, Replicate 1", "setting": "eggs of Aleyrodidae; listed as 1′-(S, R)", "value": 0},
      {"measurement": "Number of hatched larvae 5 days after insecticide delivery, Replicate 2", "setting": "eggs of Aleyrodidae; listed as 1′-(S, R)", "value": 0},
      {"measurement": "Number of hatched larvae 5 days after insecticide delivery, Replicate 3", "setting": "eggs of Aleyrodidae; listed as 1′-(S, R)", "value": 0},
      {"measurement": "inhibitory effect on the hatching of eggs of Panonychus citri (in words)", "setting": "eggs of Panonychus citri", "value": "good inhibitory effects"},
      {"measurement": "Hatching rate (%), Replicate 1", "setting": "eggs of Panonychus citri; listed as 1′-(S, R)", "value": 0.00, "unit": "%"},
      {"measurement": "Hatching rate (%), Replicate 2", "setting": "eggs of Panonychus citri; listed as 1′-(S, R)", "value": 0.00, "unit": "%"},
      {"measurement": "Hatching rate (%), Replicate 3", "setting": "eggs of Panonychus citri; listed as 1′-(S, R)", "value": 0.00, "unit": "%"},
      {"measurement": "Number of hatched larvae 5 days after insecticide delivery, Replicate 1", "setting": "eggs of Panonychus citri; listed as 1′-(S, R)", "value": 0},
      {"measurement": "Number of hatched larvae 5 days after insecticide delivery, Replicate 2", "setting": "eggs of Panonychus citri; listed as 1′-(S, R)", "value": 0},
      {"measurement": "Number of hatched larvae 5 days after insecticide delivery, Replicate 3", "setting": "eggs of Panonychus citri; listed as 1′-(S, R)", "value": 0},
      {"measurement": "inhibitory activity on the hatching of eggs of Harmonia axyridis (in words)", "setting": "[2]", "value": "strong inhibitory activities"},
      {"measurement": "Number of hatched larvae 4 days after insecticide delivery, Replicate 1", "setting": "[2]; listed as 1′-(S, R)", "value": 0},
      {"measurement": "Number of hatched larvae 4 days after insecticide delivery, Replicate 2", "setting": "[2]; listed as 1′-(S, R)", "value": 0},
      {"measurement": "Number of hatched larvae 4 days after insecticide delivery, Replicate 3", "setting": "[2]; listed as 1′-(S, R)", "value": 0},
      {"measurement": "Hatching rate (%), Replicate 1", "setting": "[2]; listed as 1′-(S, R)", "value": 0.00, "unit": "%"},
      {"measurement": "Hatching rate (%), Replicate 2", "setting": "[2]; listed as 1′-(S, R)", "value": 0.00, "unit": "%"},
      {"measurement": "Hatching rate (%), Replicate 3", "setting": "[2]; listed as 1′-(S, R)", "value": 0.00, "unit": "%"}
    ]},
    {"smiles": "CC(COc1ccc(Cl)cc1Cl)OS(=O)OCCF", "note": "[1′-(S,S)]", "values": [
      {"measurement": "Hatching rate (%), Replicate 1", "setting": "[1]; listed as 1′-(S, S)", "value": 64.52, "unit": "%"},
      {"measurement": "Hatching rate (%), Replicate 2", "setting": "[1]; listed as 1′-(S, S)", "value": 63.79, "unit": "%"},
      {"measurement": "Hatching rate (%), Replicate 3", "setting": "[1]; listed as 1′-(S, S)", "value": 66.07, "unit": "%"},
      {"measurement": "Number of unhatched larvae 4 days after insecticide delivery, Replicate 1", "setting": "[1]; listed as 1′-(S, S)", "value": 22},
      {"measurement": "Number of unhatched larvae 4 days after insecticide delivery, Replicate 2", "setting": "[1]; listed as 1′-(S, S)", "value": 21},
      {"measurement": "Number of unhatched larvae 4 days after insecticide delivery, Replicate 3", "setting": "[1]; listed as 1′-(S, S)", "value": 19},
      {"measurement": "inhibitory rate against Magnaporthe grisea (in words)", "setting": "Magnaporthe grisea", "value": "strong inhibitory rate"},
      {"measurement": "Average antifungal rate (%)", "setting": "Magnaporthe grisea", "value": 81.44, "unit": "%"},
      {"measurement": "Antifungal rate of Magnaporthe grisea (%), Replicate 1", "setting": "Magnaporthe grisea", "value": 84.82, "unit": "%"},
      {"measurement": "Antifungal rate of Magnaporthe grisea (%), Replicate 2", "setting": "Magnaporthe grisea", "value": 83.06, "unit": "%"},
      {"measurement": "Antifungal rate of Magnaporthe grisea (%), Replicate 3", "setting": "Magnaporthe grisea", "value": 76.44, "unit": "%"},
      {"measurement": "Hatching rate (%), Replicate 1", "setting": "eggs of Aleyrodidae; listed as 1′-(S, S)", "value": 15.15, "unit": "%"},
      {"measurement": "Hatching rate (%), Replicate 2", "setting": "eggs of Aleyrodidae; listed as 1′-(S, S)", "value": 16.19, "unit": "%"},
      {"measurement": "Hatching rate (%), Replicate 3", "setting": "eggs of Aleyrodidae; listed as 1′-(S, S)", "value": 15.38, "unit": "%"},
      {"measurement": "Number of hatched larvae 5 days after insecticide delivery, Replicate 1", "setting": "eggs of Aleyrodidae; listed as 1′-(S, S)", "value": 20},
      {"measurement": "Number of hatched larvae 5 days after insecticide delivery, Replicate 2", "setting": "eggs of Aleyrodidae; listed as 1′-(S, S)", "value": 17},
      {"measurement": "Number of hatched larvae 5 days after insecticide delivery, Replicate 3", "setting": "eggs of Aleyrodidae; listed as 1′-(S, S)", "value": 12},
      {"measurement": "Hatching rate (%), Replicate 1", "setting": "eggs of Panonychus citri; listed as 1′-(S, S)", "value": 14.73, "unit": "%"},
      {"measurement": "Hatching rate (%), Replicate 2", "setting": "eggs of Panonychus citri; listed as 1′-(S, S)", "value": 16.05, "unit": "%"},
      {"measurement": "Hatching rate (%), Replicate 3", "setting": "eggs of Panonychus citri; listed as 1′-(S, S)", "value": 16.67, "unit": "%"},
      {"measurement": "Number of hatched larvae 5 days after insecticide delivery, Replicate 1", "setting": "eggs of Panonychus citri; listed as 1′-(S, S)", "value": 19},
      {"measurement": "Number of hatched larvae 5 days after insecticide delivery, Replicate 2", "setting": "eggs of Panonychus citri; listed as 1′-(S, S)", "value": 13},
      {"measurement": "Number of hatched larvae 5 days after insecticide delivery, Replicate 3", "setting": "eggs of Panonychus citri; listed as 1′-(S, S)", "value": 18},
      {"measurement": "Number of hatched larvae 4 days after insecticide delivery, Replicate 1", "setting": "[2]; listed as 1′-(S, S)", "value": 18},
      {"measurement": "Number of hatched larvae 4 days after insecticide delivery, Replicate 2", "setting": "[2]; listed as 1′-(S, S)", "value": 19},
      {"measurement": "Number of hatched larvae 4 days after insecticide delivery, Replicate 3", "setting": "[2]; listed as 1′-(S, S)", "value": 21},
      {"measurement": "Hatching rate (%), Replicate 1", "setting": "[2]; listed as 1′-(S, S)", "value": 19.57, "unit": "%"},
      {"measurement": "Hatching rate (%), Replicate 2", "setting": "[2]; listed as 1′-(S, S)", "value": 19.39, "unit": "%"},
      {"measurement": "Hatching rate (%), Replicate 3", "setting": "[2]; listed as 1′-(S, S)", "value": 18.69, "unit": "%"}
    ]}
  ]
}
